{"source": "PubChem BioAssay AID256", "about": "(DTP/NCI, 2004)", "test_system": "CD2F1 mice, L1210 leukemia ip, survival T/C", "test": "NCI In Vivo Anticancer Drug Screen. Data for tumor model L1210 Leukemia (intraperitoneal) in CD2F1 (CDF1) mice", "conditions": "higher = longer survival", "in_short": "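Transplantable tumor in mice; compound-treated vs vehicle-treated groups. Read-out = treated/control ratio of the measured endpoint.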", "key": {"[1]": {"conditions": "endpoint: mean survival time, dose: 100.0 mg/kg/injection, schedule: Q01DX009 (ip), vehicle: saline"}, "[2]": {"conditions": "endpoint: mean survival time, dose: 200.0 mg/kg/injection, schedule: Q01DX009 (ip), vehicle: saline"}, "[3]": {"conditions": "endpoint: mean survival time, dose: 100.0 mg/kg/injection, schedule: Q04DX003 (ip), vehicle: saline with Tween-80"}, "[4]": {"conditions": "endpoint: mean survival time, dose: 200.0 mg/kg/injection, schedule: Q04DX003 (ip), vehicle: saline with Tween-80"}, "[5]": {"conditions": "endpoint: mean survival time, dose: 400.0 mg/kg/injection, schedule: Q04DX003 (ip), vehicle: saline with Tween-80"}}, "note": "Where “and” joins values, the source holds several entries; their conditions need not be identical. Identical values can stand only once. Toxic doses and inconclusive results are not listed."}
{"smiles": "COC1C(/C=C/C(C)=O)OC2OC(C)(C)OC21", "note": "(stereo unspecified)", "values": [{"measurement": "T/C", "setting": "endpoint: mean survival time, dose: 6.25 mg/kg/injection, schedule: Q01DX009 (ip), vehicle: saline", "value": "110 % of control"}, {"measurement": "T/C", "setting": "endpoint: mean survival time, dose: 12.5 mg/kg/injection, schedule: Q01DX009 (ip), vehicle: saline", "value": "110 % of control"}, {"measurement": "T/C", "setting": "endpoint: mean survival time, dose: 25.0 mg/kg/injection, schedule: Q01DX009 (ip), vehicle: saline", "value": "95 % of control"}, {"measurement": "T/C", "setting": "endpoint: mean survival time, dose: 50.0 mg/kg/injection, schedule: Q01DX009 (ip), vehicle: saline", "value": "103 % of control"}, {"measurement": "T/C", "setting": "[1]", "value": "109 % of control"}, {"measurement": "T/C", "setting": "[2]", "value": "116 % of control"}]}
{"smiles": "OCC1OC(c2[nH]nc3c(NO)ncnc23)C(O)C1O", "note": "(stereo unspecified)", "values": [{"measurement": "T/C", "setting": "endpoint: mean survival time, dose: 75.0 mg/kg/injection, schedule: Q01DX001 (ip), vehicle: saline", "value": "107 % of control"}, {"measurement": "T/C", "setting": "endpoint: mean survival time, dose: 150.0 mg/kg/injection, schedule: Q01DX001 (ip), vehicle: saline", "value": "107 % of control"}]}
{"smiles": "O=c1cc(Cl)ncn1C1OC(CO)C(O)C1O", "note": "(stereo unspecified)", "values": [{"measurement": "T/C", "setting": "endpoint: median survival time, dose: 12.5 mg/kg/injection, schedule: Q01DX005 (ip), vehicle: saline", "value": "108 % of control"}, {"measurement": "T/C", "setting": "endpoint: median survival time, dose: 25.0 mg/kg/injection, schedule: Q01DX005 (ip), vehicle: saline", "value": "104 % of control"}, {"measurement": "T/C", "setting": "endpoint: median survival time, dose: 50.0 mg/kg/injection, schedule: Q01DX005 (ip), vehicle: saline", "value": "95 % of control"}, {"measurement": "T/C", "setting": "endpoint: median survival time, dose: 100.0 mg/kg/injection, schedule: Q01DX005 (ip), vehicle: saline", "value": "97 % of control"}, {"measurement": "T/C", "setting": "endpoint: median survival time, dose: 200.0 mg/kg/injection, schedule: Q01DX005 (ip), vehicle: saline", "value": "97 % of control"}]}
{"smiles": "COC(=O)C(C)(C)Br", "values": [{"measurement": "T/C", "setting": "[3]", "value": "97 % of control"}, {"measurement": "T/C", "setting": "[4]", "value": "102 % of control"}, {"measurement": "T/C", "setting": "[5]", "value": "102 % of control"}]}
{"smiles": "Cc1cc(C2(c3ccc(O)c(C)c3)CCCCC2)ccc1O", "values": [{"measurement": "T/C", "setting": "endpoint: mean survival time, dose: 100.0 mg/kg/injection, schedule: Q01DX001 (ip), vehicle: saline with Tween-80", "value": "97 % of control"}, {"measurement": "T/C", "setting": "endpoint: mean survival time, dose: 100.0 mg/kg/injection, schedule: Q01DX009 (ip), vehicle: Klucel (hydroxypropylcellulose) (HPC)", "value": "95 % of control"}, {"measurement": "T/C", "setting": "endpoint: mean survival time, dose: 200.0 mg/kg/injection, schedule: Q01DX001 (ip), vehicle: saline with Tween-80", "value": "94 % of control"}, {"measurement": "T/C", "setting": "endpoint: mean survival time, dose: 200.0 mg/kg/injection, schedule: Q01DX009 (ip), vehicle: Klucel (hydroxypropylcellulose) (HPC)", "value": "94 % of control"}, {"measurement": "T/C", "setting": "endpoint: mean survival time, dose: 400.0 mg/kg/injection, schedule: Q01DX001 (ip), vehicle: saline with Tween-80", "value": "96 % of control"}, {"measurement": "T/C", "setting": "endpoint: mean survival time, dose: 400.0 mg/kg/injection, schedule: Q01DX009 (ip), vehicle: Klucel (hydroxypropylcellulose) (HPC)", "value": "94 % of control"}]}
{"smiles": "CC1C2CC3C(OC(=O)C13)C2I", "note": "(stereo unspecified)", "values": [{"measurement": "T/C", "setting": "endpoint: mean survival time, dose: 100.0 mg/kg/injection, schedule: Q01DX009 (ip), vehicle: saline with Tween-80", "value": "95 % of control"}, {"measurement": "T/C", "setting": "[3]", "value": "95 % of control"}, {"measurement": "T/C", "setting": "endpoint: mean survival time, dose: 200.0 mg/kg/injection, schedule: Q01DX009 (ip), vehicle: saline with Tween-80", "value": "86 % of control"}, {"measurement": "T/C", "setting": "[4]", "value": "89 % of control"}, {"measurement": "T/C", "setting": "endpoint: mean survival time, dose: 400.0 mg/kg/injection, schedule: Q01DX009 (ip), vehicle: saline with Tween-80", "value": "92 % of control"}, {"measurement": "T/C", "setting": "[5]", "value": "87 % of control"}]}
{"smiles": "BrN1CCCCC1", "values": [{"measurement": "T/C", "setting": "endpoint: mean survival time, dose: 100.0 mg/kg/injection, schedule: Q04DX002 (ip), vehicle: saline", "value": "103 % of control"}, {"measurement": "T/C", "setting": "endpoint: mean survival time, dose: 200.0 mg/kg/injection, schedule: Q04DX002 (ip), vehicle: saline", "value": "122 % of control"}, {"measurement": "T/C", "setting": "endpoint: mean survival time, dose: 400.0 mg/kg/injection, schedule: Q04DX002 (ip), vehicle: saline", "value": "103 % of control"}]}
{"smiles": "CC(C)CC(CCl)Cc1nc2ccccc2[nH]1", "note": "(stereo unspecified)", "values": [{"measurement": "T/C", "setting": "endpoint: mean survival time, dose: 100.0 mg/kg/injection, schedule: Q04DX002 (ip), vehicle: saline with Tween-80", "value": "94 % of control"}, {"measurement": "T/C", "setting": "endpoint: mean survival time, dose: 200.0 mg/kg/injection, schedule: Q04DX002 (ip), vehicle: saline with Tween-80", "value": "97 % of control"}]}
{"smiles": "COc1cc(CNC(=O)/C(C)=C/Cl)ccc1O", "values": [{"measurement": "T/C", "setting": "endpoint: mean survival time, dose: 12.5 mg/kg/injection, schedule: Q01DX009 (ip), vehicle: saline with Tween-80", "value": "96 % of control"}, {"measurement": "T/C", "setting": "endpoint: mean survival time, dose: 25.0 mg/kg/injection, schedule: Q01DX009 (ip), vehicle: saline with Tween-80", "value": "95 % of control"}, {"measurement": "T/C", "setting": "endpoint: mean survival time, dose: 50.0 mg/kg/injection, schedule: Q01DX009 (ip), vehicle: saline with Tween-80", "value": "101 % of control"}]}
{"smiles": "Cc1cn([C@@H]2C[C@H](CO)[C@@H](O)C2)c(=O)[nH]c1=O", "values": [{"measurement": "T/C", "setting": "endpoint: mean survival time, dose: 133.0 mg/kg/injection, schedule: Q01DX009 (ip), vehicle: saline", "value": "118 % of control"}, {"measurement": "T/C", "setting": "[2]", "value": "121 % of control"}, {"measurement": "T/C", "setting": "endpoint: mean survival time, dose: 450.0 mg/kg/injection, schedule: Q01DX009 (ip), vehicle: saline", "value": "106 % of control"}]}
{"smiles": "O=S(=O)(O)CCCBr", "values": [{"measurement": "T/C", "setting": "[1]", "value": "93 % of control"}, {"measurement": "T/C", "setting": "[2]", "value": "105 % of control"}, {"measurement": "T/C", "setting": "endpoint: mean survival time, dose: 400.0 mg/kg/injection, schedule: Q01DX009 (ip), vehicle: saline", "value": "100 % of control"}]}
{"smiles": "Nc1nc2ccc(NCc3ccc(C(=O)NC(CCC(=O)O)C(=O)O)cc3)cc2c(=O)[nH]1", "note": "(stereo unspecified)", "values": [{"measurement": "T/C", "setting": "endpoint: median survival time, dose: 6.25 mg/kg/injection, schedule: Q01DX009 (ip), vehicle: saline with Tween-80", "value": "100 % of control and 101 % of control"}, {"measurement": "T/C", "setting": "endpoint: median survival time, dose: 12.5 mg/kg/injection, schedule: Q01DX009 (ip), vehicle: saline with Tween-80", "value": "100 % of control and 108 % of control (2×)"}, {"measurement": "T/C", "setting": "endpoint: median survival time, dose: 25.0 mg/kg/injection, schedule: Q01DX009 (ip), vehicle: saline with Tween-80", "value": "115 % of control and 118 % of control and 119 % of control"}, {"measurement": "T/C", "setting": "endpoint: median survival time, dose: 50.0 mg/kg/injection, schedule: Q01DX009 (ip), vehicle: saline with Tween-80", "value": "155 % of control"}]}
